Measured values published in ChEMBL document CHEMBL1201862, “PubChem BioAssay data set” (2004).
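Grown in 96-well plates, cells were treated for 48 hours with each compound at five concentrations. Insufficient inhibition: endpoint recorded as highest concentration tested. At the GI50, growth is halved.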 The source made the active and inactive calls. Rule as the data show it: active = GI50 up to about 1.1 µM and inactive = higher.

How the values were obtained:
Assay in all cases: growth of human tumour cells (NCI), 48 h
[1] = tested on: UO-31
[2] = tested on: KM12
[3] = tested on: ACHN
[4] = tested on: SNB-19
[5] = tested on: MCF7
[6] = tested on: HCC 2998
[7] = tested on: SN12C
[8] = tested on: MDA-MB-231
[9] = tested on: HCT-116
[10] = tested on: SK-MEL-28
[11] = tested on: HL-60
[12] = tested on: TK-10
[13] = tested on: SK-OV-3
[14] = tested on: OVCAR-8
[15] = tested on: U-251
[16] = tested on: HOP-62
[17] = tested on: MOLT-4
[18] = tested on: M14
[19] = tested on: CCRF-CEM
[20] = tested on: NCI/ADR-RES

Measured: GI50

O=C(Cc1ccccc1)Nn1c(-c2ccccc2)nc2ccccc2c1=O
inactive: [1] > 100 µM | [2] > 100 µM | [3] > 100 µM | [4] > 100 µM | [5] > 100 µM | [6] > 100 µM | [7] > 100 µM | [8] > 100 µM | [9] > 100 µM | [10] > 100 µM | [11] > 100 µM | [12] > 100 µM | [13] > 100 µM | [14] > 100 µM | [15] > 100 µM | [16] > 100 µM | [17] > 100 µM | [18] > 100 µM | [19] > 100 µM

Cn1sc2ccccc2c1=S
inactive: [1] 15.3 µM | [2] 12 µM | [3] 13.8 µM | [4] 12.2 µM | [5] 2.64 µM | [6] 28.2 µM | [7] 6.75 µM | [9] 3.21 µM | [10] 8.11 µM | [11] 5.47 µM | [12] 24.1 µM | [13] 36.1 µM | [20] 3.21 µM | [14] 9.71 µM | [15] 4.01 µM | [16] 16.5 µM | [17] 4.04 µM | [18] 10.4 µM | [19] 2.44 µM

COC1OC(CBr)C(OC(c2ccccc2)(c2ccccc2)c2ccccc2)C(OC(c2ccccc2)(c2ccccc2)c2ccccc2)C1OC(c1ccccc1)(c1ccccc1)c1ccccc1 (stereo unspecified)
inactive: [1] 14.3 µM | [2] > 100 µM | [3] 45.9 µM | [4] 24.3 µM | [5] 41.7 µM | [6] 65.2 µM | [7] 41.3 µM | [9] 37.6 µM | [10] > 100 µM | [11] > 100 µM | [12] 28.3 µM | [13] 23 µM | [20] 51.6 µM | [14] 27.1 µM | [16] 25.2 µM | [17] > 100 µM | [18] 51.8 µM | [19] > 100 µM

N=C(N)NCCCC(NCc1c2ccccc2[n+]([O-])c2ccccc12)C(=O)O (stereo unspecified)
inactive: [1] 23.6 µM | [2] 50.8 µM | [3] 42.7 µM | [4] 55.6 µM | [6] 74.5 µM | [7] 52.7 µM | [9] 25.6 µM | [10] 40.8 µM | [11] 24.9 µM | [12] > 100 µM | [13] > 100 µM | [14] 52.5 µM | [15] 77.4 µM | [16] > 100 µM | [17] 27.1 µM | [18] 85.5 µM | [19] 24.5 µM

CC(C)=CCC/C(C)=C/Cc1c(O)ccc2c1[nH]c1cc(O)c(C)cc12
inactive: [1] 7.73 µM | [2] 10.6 µM | [3] 8.85 µM | [4] 9.46 µM | [6] 11 µM | [7] 14.6 µM | [9] 13.3 µM | [10] > 25 µM | [11] 7.53 µM | [12] > 25 µM | [13] 24.2 µM | [14] 9.46 µM | [15] 10 µM | [16] 7.62 µM | [17] 6.07 µM | [18] 11.8 µM | [19] 7.55 µM

Cc1nc(Nc2ccc(Cl)cc2)sc1C(=O)NNc1ccc([N+](=O)[O-])cc1[N+](=O)[O-]
inactive: [1] 14.2 µM | [2] 15.8 µM | [3] 17.3 µM | [4] 16.7 µM | [6] 16.3 µM | [7] 17.7 µM | [9] 13.8 µM | [10] 19.9 µM | [11] 16 µM | [12] 19.8 µM | [13] 29.2 µM | [14] 21.4 µM | [15] 15.6 µM | [16] 12.2 µM | [17] 15 µM | [18] 24.7 µM | [19] 17.8 µM

COc1cc(N2C(=O)C(=O)C3(CCCCC3)C2=O)cc(OC)c1OC
inactive: [1] 73.3 µM | [2] > 100 µM | [3] > 100 µM | [4] > 100 µM | [5] > 100 µM | [6] > 100 µM | [7] > 100 µM | [9] > 100 µM | [10] > 100 µM | [11] > 100 µM | [12] > 100 µM | [13] > 100 µM | [20] > 100 µM | [14] > 100 µM | [15] > 100 µM | [16] 57.5 µM | [17] > 100 µM | [18] > 100 µM | [19] > 100 µM
